Assays:
[1] = target: recombinant human CCR5 receptor (Homo sapiens, UniProt P51681); experiment: in vitro radioligand binding assay, inhibition of binding of iodinated RANTES or MIP-1α (scintillation proximity); details: membranes from Chinese hamster ovary cells expressing recombinant human CCR5; 0.1 nM iodinated RANTES or MIP-1α; read-out: IC50 (concentration of compound which displaced 50% of bound iodinated RANTES or MIP-1α)
Method: The ability of compounds to inhibit the binding of RANTES or MIP-1α was assessed by an in vitro radioligand binding assay. Membranes were prepared from Chinese hamster ovary cells which expressed the recombinant human CCR5 receptor. These membranes were incubated with 0.1 nM iodinated RANTES or MP-1α, scintillation proximity beads and various concentrations of the compounds of the invention in 96-well plates. The amount of iodinated RANTES or MIP-1α bound to the receptor was determined by scintillation counting. Competition curves were obtained for compounds and the concentration of compound which displaced 50% of bound iodinated RANTES or MIP-1α was calculated (IC50).

Sequence of recombinant human CCR5 receptor (P51681 whole entry): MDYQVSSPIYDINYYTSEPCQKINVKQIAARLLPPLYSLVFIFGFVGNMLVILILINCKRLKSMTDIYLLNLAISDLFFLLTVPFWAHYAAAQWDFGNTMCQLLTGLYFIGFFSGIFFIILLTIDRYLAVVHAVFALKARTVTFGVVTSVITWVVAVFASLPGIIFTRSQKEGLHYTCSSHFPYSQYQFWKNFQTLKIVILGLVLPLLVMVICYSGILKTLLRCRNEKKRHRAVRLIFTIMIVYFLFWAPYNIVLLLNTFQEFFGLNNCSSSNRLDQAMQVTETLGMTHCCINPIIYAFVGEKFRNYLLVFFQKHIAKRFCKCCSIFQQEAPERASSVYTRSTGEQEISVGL

Compound | IC50 [1] [nM] | melting point [°C]
CCN(C(=O)Cc1ccc(S(C)(=O)=O)cc1)C1CCN(CC[C@H](NC(=O)C2CCN(C(C)=O)CC2)c2ccccc2)CC1 [Compound 1 of Table I, (S)-1-acetyl-piperidine-4-carboxylic acid [3-(4-{ethyl-[2-(4-methanesulfonyl-phenyl)-acetyl]-amino}-piperidin-1-yl)-1-phenyl-propyl]-amide] | 39 | 
CCN(C(=O)Cc1ccc(S(C)(=O)=O)cc1)C1CCN(CC[C@H](NC(=O)OC(C)(C)C)c2ccccc2)CC1 [Compound 1 of Table II, (S)-[3-(4-{ethyl-[2-(4-methanesulfonyl-phenyl)-acetyl]-amino}-piperidin-1-yl)-1-phenyl-propyl]-carbamic acid tert-butyl ester] |  | 115 to 116
CCN(C(=O)Cc1ccc(S(C)(=O)=O)cc1)C1CCN(CC[C@H](NC(=O)OCCOC)c2ccccc2)CC1 [Compound 3 of Table II] | 110 | 
CCN(C(=O)Cc1ccc(S(C)(=O)=O)cc1)C1CCN(CC[C@H](NC(=O)C2CCN(S(C)(=O)=O)CC2)c2ccccc2)CC1 [Compound 5 of Table I] | 28 | 

From US20060167048A1, “N-4-piperidinyl compounds as ccr5 modulators” (priority 2002, published 2006)
